# According to PubChem BioAssay AID652053 (Broad Institute, 2013):
# System: Huh7 psiCHECK-miR122 Renilla luciferase reporter, 48 h
# Test: suppression of miR-122 activity, Renilla luciferase sensor – cell-based, Huh7 psiCHECK-miR122, cherry-pick, dose response (AID 652053)
row,Structure (SMILES),AC40
1,CC(OC(=O)c1cccc(S(=O)(=O)Nc2cccc(C(F)(F)F)c2)c1)C(=O)Nc1ccc2c(c1)OCCO2 (configuration not stated),3.57 µM
2,COc1ccc(C)cc1S(=O)(=O)NC1CCCCC1C (configuration not stated),3.25 µM
3,CC(=O)N1CCOc2ccc(S(=O)(=O)NCCc3cccc(C)c3)cc21,4.01 µM
4,C=C(C)CN(CC)C(=O)COc1ccc(S(=O)(=O)Nc2ccc(OC)cc2)cc1,7.78 µM
5,Cc1ccc(NS(=O)(=O)c2cc(C(=O)Nc3cccc([N+](=O)[O-])c3)ccc2C)cc1,2.5 µM
6,C[C@H](CO)N1C[C@H](C)[C@@H](CN(C)Cc2ccc(C(F)(F)F)cc2)Oc2c(NC(=O)c3nc4ccccc4s3)cccc2C1=O,2.32 µM
7,Cc1ccc(S(=O)(=O)Nc2cccc(-c3ccc4nncn4n3)c2)cc1,9.35 µM
8,Cc1nc2ccc(S(=O)(=O)Nc3ccccc3C)cc2s1,22.2 µM
9,CC(=O)N1CCc2cc(Br)cc(S(=O)(=O)NCc3ccc(Cl)cc3)c21,4.29 µM
10,CCOc1ccc(Br)cc1S(=O)(=O)Nc1cccc(S(=O)(=O)N(C)c2ccccc2)c1,3.18 µM
11,O=C(c1ccccc1F)N1C[C@H]2[C@@H](c3ccccc31)[C@@H](CO)N2C(=O)c1ccc(F)cc1,2.4 µM
12,CN1c2ccc(-c3ccc(F)cc3)cc2[C@H]2[C@H](CCN2S(=O)(=O)c2cccc(F)c2)[C@H]1CO,8.83 µM
13,C=CCNC(=O)c1ccccc1NC(=O)c1ccc(Cl)c(S(=O)(=O)Nc2cccc(C)c2C)c1,0.734 µM
14,O=S(=O)(NCc1ccco1)c1ccc2ccccc2c1,2.62 µM
15,COc1ccccc1NS(=O)(=O)c1cc(NC(=O)c2cccc(S(=O)(=O)N(C)C)c2)ccc1N1CCOCC1,0.776 µM
16,COc1ccc(Br)cc1S(=O)(=O)N1CCN=C1c1ccccc1,9.26 µM
17,COc1ccc(NC(=O)C2CCC2)cc1S(=O)(=O)Nc1cc(C)ccc1Br,0.985 µM
18,Cc1ccc(S(=O)(=O)N(C)C[C@H]2Oc3ccc(NC(=O)CCC(F)(F)F)cc3C(=O)N([C@@H](C)CO)C[C@H]2C)cc1,12.1 µM
19,C[C@H](CO)N1C[C@H](C)[C@H](CN(C)Cc2ccc(C(=O)Nc3ccccc3N)cc2)Oc2ccc(NS(=O)(=O)c3ccc(Cl)cc3)cc2CC1=O,7.89 µM
20,CCOc1ccccc1N(CC(=O)N1CCCCCC1)S(=O)(=O)c1ccc(C)cc1,1.23 µM
21,FC(F)Sc1ccc(NC(=S)NC2CCCCC2)cc1,4.16 µM
22,Cc1ccc(NS(=O)(=O)c2cc(C(=O)NCCSC3CCCCC3)ccc2C)cc1,4.68 µM
23,O=S(=O)(Nc1ccc(Cl)cc1)c1ccc2c(c1)CCO2,2.26 µM
24,COc1cc(NS(=O)(=O)c2ccc(NC(=S)NC(=O)c3ccco3)cc2)nc(OC)n1,7.11 µM
25,COc1ccc(NC(=O)C(OC(=O)Cn2cnc3c2c(=O)n(C)c(=O)n3C)c2ccccc2)cc1Cl (configuration not stated),7.87 µM

row,Structure (SMILES),AC40
1,CC(NC(=S)Nc1ccc(Cl)cc1Cl)C(c1cccs1)N1CCCC1 (configuration not stated),23.8 µM
2,CCCC#Cc1cnc2c(c1)C(=O)N([C@H](C)CO)C[C@H](C)[C@H](CN(C)Cc1ccccc1F)O2,13.1 µM
3,COc1ccc(OC)c(-c2csc(NC(=O)Cc3ccccc3F)n2)c1,8.49 µM
4,Cc1ccc(NS(=O)(=O)c2cccc(C(=O)N(C)Cc3cccs3)c2)cc1,3.04 µM
5,COc1ccc(NS(=O)(=O)c2cc(NC(=O)COc3ccc(OC)cc3)ccc2N2CCOCC2)cc1,2.62 µM
6,COc1ccccc1NS(=O)(=O)c1cc(NC(=S)NCCN2CCOCC2)ccc1N1CCOCC1,1.71 µM
7,Cc1ccc(C(=O)Nc2ccccc2-c2ccccc2)cc1S(=O)(=O)Nc1ccccc1,3.64 µM
8,CCOc1cc(N2CCOCC2)c(OCC)cc1NS(=O)(=O)c1ccc(Cl)s1,32.9 µM
9,CCNS(=O)(=O)c1ccc2c3c(cccc13)C(=O)N2,11.6 µM
10,CCCCOc1ccc(S(=O)(=O)Nc2ccc(NC(C)=O)cc2)cc1,10.3 µM
11,COC(=O)c1[nH]c2ccccc2c1NC(=O)CN1CCCc2ccccc21,21.5 µM
12,COc1ccc(S(=O)(=O)NCCSC(C)(C)C)c(Cl)c1Cl,8.16 µM
13,Cc1noc(C)c1S(=O)(=O)N(C)C[C@@H]1Oc2c(NC(=O)C3CCOCC3)cccc2C(=O)N([C@@H](C)CO)C[C@@H]1C,4.51 µM
14,Cc1cc(-c2ccc(C(C)C)c(S(=O)(=O)NCc3ccco3)c2)on1,1.22 µM
15,CC(C)CNS(=O)(=O)c1ccc(OCC(=O)Nc2ccc3c(c2)OCO3)c(Cl)c1,8.36 µM
16,Cc1ccc(C2CN(C)C3(C(=O)Nc4ccccc43)C23COc2ccccc2C3=O)cc1 (configuration not stated),1.08 µM
17,Cc1ccc(NC(=O)C(=O)c2c(-c3ccccc3)cc3ccccn23)cc1S(=O)(=O)N1CCOCC1,27.9 µM
18,O=C(NNS(=O)(=O)c1ccc(Cl)cc1)c1cccs1,16.6 µM
19,COc1cc(NS(=O)(=O)c2ccc3c(c2)C(C)(C)C(=O)N3C)cc(OC)c1,2.85 µM
20,CN1C(=O)c2cc(NC(=O)Cc3ccccc3)ccc2OC[C@@H]2O[C@H](CC(=O)NCc3ccc(Cl)cc3)CC[C@@H]21,< 0.26 µM
21,CCc1ccc(NS(=O)(=O)c2ccc(OC)c3ncccc23)cc1,0.362 µM
22,Cc1cc(C)c(C)c(S(=O)(=O)NC2CCCCC2)c1C,0.607 µM
23,Cc1cc(Cl)c(S(=O)(=O)Nc2ccc3c(c2)OCO3)cc1OCC(=O)NC1CCCCC1,5.8 µM
24,COc1ccccc1NS(=O)(=O)c1cc(NC(=O)CCC2CCCC2)ccc1N1CCOCC1,1.45 µM
25,Cc1ccc(C)c(S(=O)(=O)Nc2ccc(C(=O)N3CCC3)cc2)c1,2.82 µM

row,Structure (SMILES),AC40
1,COc1ccc(OC)c(S(=O)(=O)Nc2ccccc2C(F)(F)F)c1,9.97 µM
2,C[C@H](CO)N1C[C@H](C)[C@@H](CN(C)C(=O)Nc2ccc(F)cc2)Oc2c(NS(=O)(=O)c3ccccc3)cccc2C1=O,20.4 µM
3,Cc1ccc(C(C)(C)C)cc1S(=O)(=O)Nc1cccc(S(=O)(=O)NC2=NCCC2)c1,5.86 µM
4,CCCNC(=O)C[C@@H]1CC[C@H]2[C@H](COc3ccc(NC(=O)c4ccc5c(c4)OCO5)cc3C(=O)N2C)O1,2.21 µM
5,COc1ccc(NS(=O)(=O)c2cc3c(cc2C)N(C)CCO3)cc1,2.04 µM
6,COc1ccc(OC)c(S(=O)(=O)NCc2ccccc2)c1,0.781 µM
7,Cc1ccc(C(C)C)cc1S(=O)(=O)NCc1ccccn1,1.38 µM
8,Cc1cccc(C(O)c2ncc(-c3ccccc3F)[nH]2)c1C (configuration not stated),5.74 µM
9,Nc1ncc(Br)cc1S(=O)(=O)NCCc1ccccc1,0.647 µM
10,Cc1cccc(NS(=O)(=O)c2cc3c4c(c2)C(C)C(=O)N4CCC3)c1 (configuration not stated),1.93 µM
11,Cc1ccc(C)c(S(=O)(=O)Nc2ccc3cn[nH]c3c2)c1,3.58 µM
12,CC(C)C(=O)NC(=S)Nc1ccc(S(=O)(=O)Nc2ccccc2)cc1,0.461 µM
13,COc1cccc(C2(c3cccc(OC)c3)CC2C(=O)Nc2ccc(F)cc2)c1 (configuration not stated),2.68 µM
14,O=C(Nc1ccc(F)cc1)N1C[C@H]2[C@@H](c3ccccc31)[C@@H](CO)N2C(=O)c1ccc(F)cc1,10.9 µM
15,Cc1noc(C)c1S(=O)(=O)N(C)C[C@@H]1Oc2c(NC(=O)c3cnccn3)cccc2C(=O)N([C@@H](C)CO)C[C@@H]1C,5.81 µM
16,O=S1(=O)N=CN(Cc2cccc(F)c2)c2ccccc21,3.02 µM
17,Cc1cc(C)c(C)c(S(=O)(=O)Nc2ccc(O)cc2)c1C,6.69 µM
18,C[C@]12CC[C@H](O)C[C@H]1CC[C@@H]1[C@@H]2CC[C@]2(C)[C@@H](C3=CC(=O)OC3)CC[C@]12O,5.74 µM
19,CCOC(=O)c1c(C)[nH]c(C)c1S(=O)(=O)NCCc1ccc(SC)cc1,0.686 µM
20,C[C@@H]1CN([C@H](C)CO)C(=O)Cc2cc(N(C)C)ccc2O[C@@H]1CN(C)Cc1ccc(C(=O)Nc2ccccc2N)cc1,11.1 µM
21,COc1ccc(S(=O)(=O)N(C)C[C@H]2Oc3ccc(NC(=O)Nc4ccc(C(F)(F)F)cc4)cc3C(=O)N([C@@H](C)CO)C[C@H]2C)cc1,8.41 µM
22,CN(c1cccc(NC(=O)c2ccc(Cl)c(S(=O)(=O)Nc3ccccc3)c2)c1)S(C)(=O)=O,2.18 µM
23,C[C@H]1CN([C@@H](C)CO)C(=O)Cc2cc(NC(=O)Nc3ccc(C(F)(F)F)cc3)ccc2O[C@H]1CN(C)S(=O)(=O)c1ccc(F)cc1,14 µM
24,C[C@H](CO)N1C[C@H](C)[C@@H](CN(C)Cc2ccc(C(F)(F)F)cc2)Oc2c(NC(=O)c3cnccn3)cccc2C1=O,1.43 µM
25,C[C@@H]1CN([C@@H](C)CO)C(=O)c2cccc(NS(=O)(=O)c3ccc(F)cc3)c2O[C@@H]1CN(C)Cc1ccc(C(=O)Nc2ccccc2N)cc1,10.4 µM

row,Structure (SMILES),AC40
1,O=C(c1ccc(NS(=O)(=O)c2ccc3c(c2)OCCO3)cc1)N1CCCCC1,14.8 µM
2,CCOc1ccc(Br)cc1S(=O)(=O)Nc1cccc(S(=O)(=O)N(CC)CC)c1,7.75 µM
3,OC(c1cc(Cl)cc(Cl)c1)c1ncc(-c2ccccc2F)[nH]1 (configuration not stated),3.84 µM
4,CCOc1ccc(S(=O)(=O)Nc2ccc3c(c2)OCO3)c2cccnc12,< 0.26 µM
5,CC(=Nc1ccccc1)C1=C(O)C(Cc2cccc(F)c2)NC1=O (configuration not stated),3.86 µM
6,COc1ccc(NC(=O)Nc2cccc3c2O[C@H](CN(C)Cc2ccc4c(c2)OCO4)[C@@H](C)CN([C@H](C)CO)C3=O)cc1,22.8 µM
7,C[C@H](CO)N1C[C@H](C)[C@H](CN(C)Cc2ccc(C(=O)Nc3ccccc3N)cc2)Oc2ccc(NC(=O)Nc3ccccc3)cc2CC1=O,5.91 µM
8,CC(=O)c1cccc(NS(=O)(=O)c2cc(-c3cnc(C4CC4)o3)ccc2C)c1,6.63 µM
9,C[C@H]1CN([C@@H](C)CO)C(=O)c2cccc(NC(=O)C3CCCCC3)c2O[C@@H]1CN(C)Cc1ccc(C(F)(F)F)cc1,0.547 µM
10,Cc1nc2cc(NS(=O)(=O)c3c(C)c(C)cc(C)c3C)ccc2s1,< 0.26 µM
11,CCCCNS(=O)(=O)c1ccc(NC(=O)c2cccs2)cc1,1.09 µM
12,CCOC(=O)c1ccc(NS(=O)(=O)c2cc(C)ccc2OC)cc1,8.03 µM
13,CCOc1cc(C)c(Cl)cc1S(=O)(=O)NCC1CCCO1 (configuration not stated),1.2 µM
14,COc1ccc(NS(=O)(=O)c2ccc(N3CCOCC3)c(NC(=O)c3ccc(F)cc3)c2)cc1,7.87 µM
15,Cc1ccc(S(=O)(=O)N(CC(=O)N2CCC(C)CC2)c2cccc(C)c2)cc1,12 µM
16,Cc1ccnc(NCc2cc(C)ccc2O)c1,29.8 µM
17,CCc1c(C(=O)NC2CCCCC2)[nH]c(C)c1C(C)=O,4.84 µM
18,O=S(=O)(NCCc1ccccc1)c1ccc(F)cc1Br,1.45 µM
19,Cc1ccc(S(=O)(=O)n2nc(C)c(Br)c2C)c(C)c1C,12 µM
20,Cc1sc(NC(=O)c2ccccc2)c(C(c2ccc(Cl)cc2)N2CCN(CCO)CC2)c1C (configuration not stated),22.3 µM
21,CN(Cc1ccccc1)S(=O)(=O)c1ccc(NC(=S)NC(=O)C2CCCC2)cc1,9.75 µM
22,O=S(=O)(c1ccccc1)N(CC(O)COc1ccccc1)c1ccccc1 (configuration not stated),18.9 µM
